Assay results taken from patent US20220056019A1, “FARNESOID X RECEPTOR AGONISTS AND USES THEREOF” (Metacrine, Inc., priority 2018, published 2022).

Each molecule was assayed against T1, hFXR (Homo sapiens, UniProt Q96RI1) (assay: In Vitro FXR Assay (TK): TK-ECRE-luc reporter in transfected CV-1 cells). Settings: 18 hrs incubation, luminescence.
T1 construct: expressed in transfected cells; host or cells: CV-1 cells
T1 sequence (Q96RI1 1-486): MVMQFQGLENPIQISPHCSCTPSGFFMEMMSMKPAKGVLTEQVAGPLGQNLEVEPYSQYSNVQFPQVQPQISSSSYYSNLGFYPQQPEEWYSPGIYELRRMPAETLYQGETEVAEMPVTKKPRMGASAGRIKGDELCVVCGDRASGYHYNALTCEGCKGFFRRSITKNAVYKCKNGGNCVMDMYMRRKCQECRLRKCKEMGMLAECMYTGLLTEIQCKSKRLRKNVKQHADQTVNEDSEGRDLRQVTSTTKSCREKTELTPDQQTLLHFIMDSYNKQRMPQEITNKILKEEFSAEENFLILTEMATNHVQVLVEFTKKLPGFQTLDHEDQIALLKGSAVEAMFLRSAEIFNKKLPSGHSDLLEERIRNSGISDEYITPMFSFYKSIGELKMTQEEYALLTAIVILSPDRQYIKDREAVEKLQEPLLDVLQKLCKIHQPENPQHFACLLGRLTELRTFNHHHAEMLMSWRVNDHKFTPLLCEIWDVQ
T1 sequence (P19793 1-462 partner): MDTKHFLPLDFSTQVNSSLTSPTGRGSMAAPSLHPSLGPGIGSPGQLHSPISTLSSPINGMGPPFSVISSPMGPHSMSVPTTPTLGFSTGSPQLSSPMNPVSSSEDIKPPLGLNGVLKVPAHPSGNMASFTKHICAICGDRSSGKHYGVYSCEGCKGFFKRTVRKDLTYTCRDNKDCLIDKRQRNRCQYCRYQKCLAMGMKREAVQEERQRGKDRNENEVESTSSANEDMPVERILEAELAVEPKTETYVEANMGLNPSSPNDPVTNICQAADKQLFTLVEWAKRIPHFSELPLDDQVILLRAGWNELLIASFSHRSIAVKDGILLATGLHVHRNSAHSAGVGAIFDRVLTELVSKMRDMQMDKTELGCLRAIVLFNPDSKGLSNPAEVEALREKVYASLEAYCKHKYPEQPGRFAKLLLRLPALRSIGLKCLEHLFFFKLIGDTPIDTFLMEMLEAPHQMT
Assay type: cell-based
Description: Example B-1: In Vitro FXR Assay (TK)
CV-1 cells were seeded at a density of 2,000,000 cells in a T175 flask with DMEM+10% charcoal double-stripped FBS and incubated at 37° C. in 5% CO2 for 18 h (O/N).
After 18 h of incubation, the medium in the T175 flask was changed with fresh DMEM+10% charcoal super-stripped serum. In a polypropylene tube, 2500 μL OptiMEM (Life Technologies, Cat #31985-062) was combined with expression plasmids for hFXR, hRXR, TK-ECRE-luc and pCMX-YFP. The tube was then briefly vortexed and incubated at room temperature for 5 minutes. Transfection reagent (X-tremeGENE HP from Roche, Cat #06 366 236 001) was added to the OptiMEM/plasmid mixture vortexed and incubated at room temperature for 20 minutes. Following incubation, the transfection reagent/DNA mixture complex was added to cells in the T175 flask and the cells were incubated at 37° C. in 5% CO2 for 18 h (O/N).
Compounds were serially diluted in DMSO and added to transfected CV-1 cells. The cells were then incubated for 18 hrs. The next day cells were lysed and examined for luminescence.

EC50, ≤ 50 nM:
COc1ccc([C@H]2CC[C@H](CN(c3cc(-c4cnc(C5CC5)o4)ccn3)C(=O)[C@H]3CC[C@H](OC(=O)NCC(C)(C)O)CC3)CC2)cc1C [Compound 2.50, trans-4-((4-(2-Cyclopropyloxazol-5-yl)pyridin-2-yl)((trans-4-(4-methoxy-3-methylphenyl)cyclohexyl)methyl)carbamoyl)cyclohexyl (2-hydroxy-2-methylpropyl)carbamate]
COc1ccc([C@H]2CC[C@H](CN(c3cc(-n4cnc(C5CC5)n4)ccn3)C(=O)[C@H]3CC[C@H](OC(=O)N4CC(O)C4)CC3)CC2)cc1C [Compound 2.39, trans-4-((4-(3-Cyclopropyl-1H-1,2,4-triazol-1-yl)pyridin-2-yl)((trans-4-(4-methoxy-3-methylphenyl)cyclohexyl)methyl)carbamoyl)cyclohexyl 3-hydroxyazetidine-1-carboxylate]
COc1ccc(C23CCC(CN(c4cc(-c5cnc(C(C)C)s5)ccn4)C(=O)[C@H]4CC[C@H](OC(=O)N5CC(CO)C5)CC4)(CC2)CC3)cc1C [Compound 4.29, 4-((4-(2-Isopropylthiazol-5-yl)pyridin-2-yl)((4-(4-methoxy-3-methylphenyl)bicyclo[2.2.2]octan-1-yl)methyl)carbamoyl)(trans-cyclohexyl) 3-(hydroxymethyl)azetidine-1-carboxylate]
COc1ccc(C23CCC(CN(c4cc(-c5cnc(C(C)C)s5)ccn4)C(=O)[C@H]4CC[C@H](NC(=O)CO)CC4)(CC2)CC3)cc1C [Compound 9, (trans)-4-(2-Hydroxyacetamido)-N-(4-(2-isopropylthiazol-5-yl)pyridin-2-yl)-N-((4-(4-methoxy-3-methylphenyl)bicyclo[2.2.2]octan-1-yl)methyl)cyclohexanecarboxamide]
COc1ncc([C@H]2CC[C@H](CN(c3cc(-c4cnn(C(C)C)c4)ccn3)C(=O)[C@H]3CC[C@H](OC(=O)N4CCN(C)CC4)CC3)CC2)cc1Cl [Compound 1.09, trans-4-((((trans)-4-(5-Chloro-6-methoxypyridin-3-yl)cyclohexyl)methyl)(4-(1-isopropyl-1H-pyrazol-4-yl)pyridin-2-yl)carbamoyl)cyclohexyl 4-methylpiperazine-1-carboxylate]
COc1ccc([C@H]2CC[C@H](CN(c3cc(-c4cnc(C5CC5)s4)ccn3)C(=O)[C@H]3CC[C@H](OC(=O)NCC(C)(C)O)CC3)CC2)cc1C [Compound 2, trans-4-((4-(2-Cyclopropylthiazol-5-yl)pyridin-2-yl)(((trans)-4-(4-methoxy-3-methylphenyl)cyclohexyl)methyl)carbamoyl)cyclohexyl (2-hydroxy-2-methylpropyl)carbamate]
COc1ccc(C23CCC(CN(c4ccnc(-c5cnn(C(C)C)c5)c4)C(=O)[C@H]4CC[C@H](OC(=O)N5CC(O)C5)CC4)(CC2)CC3)cc1C [Compound 4.59, 4-((2-(1-Isopropyl-1H-pyrazol-4-yl)pyridin-4-yl) ((4-(4-methoxy-3-methylphenyl)bicyclo [2.2.2]octan-1-yl)methyl)carbamoyl)(trans-cyclohexyl) 3-hydroxyazetidine-1-carboxylate]
COc1c(F)cc(C23CCC(CN(c4cc(-c5cnn(C(C)C)c5)ccn4)C(=O)[C@H]4CC[C@H](OC(=O)N5CC(O)C5)CC4)(CC2)CC3)cc1F [Compound 26.06, 4-(((4-(3,5-Difluoro-4-methoxyphenyl)bicyclo[2.2.2]octan-1-yl)methyl)(4-(1-isopropyl-1H-pyrazol-4-yl)pyridin-2-yl)carbamoyl)cyclohexyl trans-3-hydroxyazetidine-1-carboxylate]
COc1ccc([C@H]2CC[C@H](CN(c3cc(-c4ccc(N(C)C)nc4)ccn3)C(=O)[C@H]3CC[C@H](OC(=O)N4CC(O)C4)CC3)CC2)cc1C [Compound 3, trans-4-((6-(Dimethylamino)-[3,4′-bipyridine]-2′-yl)((trans-4-(4-methoxy-3-methylphenyl)cyclohexyl)methyl)carbamoyl)cyclohexyl 3-hydroxyazetidine-1-carboxylate]
